We go through two compounds from US8598234B2, “Compositions of dibromomalonamide and their use as biocides” (Dow Global Technologies LLC, priority 2009, dated 2013).

For this assay, the system named is mixture of Pseudomonas aeruginosa, Klebsiella pneumoniae, Staphylococcus aureus, and Bacillus subtilis. The assay is described as follows: Growth inhibition assay (microtiter plate-based synergy assay). Conditions: 24 h; for concentration needed to prevent at least 90% of the growth (I90) of the microbial consortium: active used alone. It is filed as cell-based. From the text: Details of each assay are provided below.
Growth Inhibition Assay. […] Regardless of the mechanism of action, the impact of a biocide (or combination of biocides) can be measured over time on the basis of an increase in the size of the community.
The assay measures the efficacy of one or more biocides at preventing growth of a consortium of bacteria in a dilute mineral salts medium. The medium contains (in mg/l) the following components: FeCl3.6H2O (1); CaCl2.2H2O (10); MgSO4.7H2O (22.5); (NH4)2SO4 (40); KH2PO4 (10); K2HPO4 (25.5); Yeast Extract (10); and glucose (100). After all components are added to deionized water, the pH of the medium is adjusted to 7.5. Following filter sterilization, aliquots are dispensed in 100 ul quantities to sterile microtiter plate wells. Dilutions of 2,2-dibromomalonamide (“DBMAL”) and/or “Biocide B” are then added to the microtiter plate. After preparing the combinations of actives as illustrated below, each well is inoculated with 100 μl of a cell suspension containing ca. 1×10^6 cells per milliliter of a mixture of Pseudomonas aeruginosa, Klebsiella pneumoniae, Staphylococcus aureus, and Bacillus subtilis. The final total volume of medium in each well is 300 μl. Once prepared as described herein, the concentration of each active ranges from 25 ppm to 0.195 ppm as illustrated in Table 1. The resulting matrix allows testing of eight concentrations of each active and 64 combinations of actives in the ratios (of actives).
Controls (not shown) contain the medium with no biocide added. After preparing the combinations of actives as illustrated above, each well is inoculated with 100 μl of a cell suspension containing ca. 1×10^6 cells per milliliter of a mixture of Pseudomonas aeruginosa, Klebsiella pneumoniae, Staphylococcus aureus, and Bacillus subtilis. The final total volume of medium in each well is 300 μl.
Immediately after the microtiter plates are prepared, the optical density (OD) readings for each well is measured at 580 nm and the plates are then incubated at 37° C. for 24 hr. After the incubation period, the plates are gently agitated before OD580 values are collected. The OD580 values at T0 are subtracted from T24 values to determine the total amount of growth (or lack thereof) that occurs. These values are used to calculate the percent inhibition of growth caused by the presence of each biocide and each of the 64 combinations.
where • CDBMAL: Concentration of DBMAL required to inhibit ˜90% of bacterial growth when used alone • CB: Concentration of biocide (B) required to inhibit ˜90% of bacterial growth when used alone.
MDBMAL: Concentration of DBMAL required to inhibit ˜90% of bacterial growth when used in combination with biocide (B).
MB: Concentration of biocide (B) required to inhibit ˜90% of bacterial growth when used in combination with DBMAL
The SI values are interpreted as follows:
• SI<1: Synergistic combination • SI=1: Additive combination • SI>1: Antagonistic combination
In the Examples below, the amounts of biocides in the solution are measured in mg per liter of solution (mg/l). Since solution densities are approximately 1.00, the mg/l measurement corresponds to weight ppm. Both units may therefore be used interchangeably in the Examples.

[1] abbreviates: read-out: % Inhibition of growth by SOPP.

Read-outs that look alike come from different tables or passages of the source.

Consider `NC(=O)C(Br)(Br)C(N)=O` [DBMAL, 2,2-dibromomalonamide], for which the “concentration needed to prevent at least 90% of the growth (I90) of the microbial consortium” value amounted to 12.5 mg/L. Further, the inhibition at […] (DBMAL alone 0.19 mg/l, OD580) was 0%. For the setting “DBMAL alone 0.39 mg/l, OD580”, the inhibition at 0.39 µg/mL stood at 4%. For the same compound, the inhibition at 0.78 µg/mL (DBMAL alone 0.78 mg/l, OD580, read-out: % Inhibition of growth by DBMAL) came out at 7%. For the setting “DBMAL alone 1.56 mg/l, OD580, read-out: % Inhibition of growth by DBMAL”, the inhibition at 1.56 µg/mL came out at 0%. In addition, the inhibition at 3.13 µg/mL (DBMAL alone 3.13 mg/l, OD580, read-out: % Inhibition of growth by DBMAL) stood at 0%. Besides, the inhibition at 6.25 µg/mL (DBMAL alone 6.25 mg/l, OD580, read-out: % Inhibition of growth by DBMAL) turned out to be 49%. Moreover, the inhibition at 12.5 µg/mL (DBMAL alone 12.5 mg/l, OD580, read-out: % Inhibition of growth by DBMAL) was 100%. Moreover, the inhibition at 25 µg/mL (DBMAL alone 25.0 mg/l, OD580, read-out: % Inhibition of growth by DBMAL) came to 100%.
In the case of `Oc1ccccc1-c1ccccc1.[Na]` [SOPP, sodium ortho-phenylphenol], the “concentration needed to prevent at least 90% of the growth (I90) of the microbial consortium” value came out at 500 mg/L. Under setting [1], the inhibition at 0.78 µg/mL is 0%, the inhibition at 1.56 µg/mL came out at 17%, the inhibition at 3.13 µg/mL turned out to be 0% and the inhibition at 6.25 µg/mL was 37%. Under setting [1], the inhibition at 12.5 µg/mL came to 68%, the inhibition at 25 µg/mL stood at 98% and the inhibition at 50 µg/mL turned out to be 98%.

In general, inhibition refers to the drop in the measured response relative to a control, in per cent.
